Assay results published in patent US8673882B2, “Inhibitors of autotaxin” (University of Tennessee Research Foundation, priority 2011, dated 2014).
Like-named read-outs stand apart in the source and are kept apart here.

How the values were obtained:
recombinant human ATX = recombinant human ATX (Homo sapiens, UniProt Q13822); assay: Autotaxin inhibition screening assay (FS-3 FRET substrate); format: biochemical; settings: for remaining activity at 10 µM: 1 μM FS-3, 37° C., read-out: ATX Activity, % control (10 μM); for inhibition at 10 µM: read-out: inhibition (reduction) of FS3 hydrolysis
Description: A 10 μM concentration of the compound is added to 2 nM recombinant human ATX and the FRET (Fluorescence Resonance Energy Transfer) ATX substrate FS-3.
As the first level of screen, 50 μl of recombinant-ATX (2 nM in final concentration) in assay buffer [(Tris 50 mM, NaCl 140 mM, KCl 5 mM, CaCl2 1 mM, MgCl2 1 mM (pH 8.0)] was mixed with 25 μL of FS-3 (Echelon Biosciences, Inc., Salt lake city, Utah), final concentration 1 μM, and 25 μl of test compound was dissolved in assay buffer with 40 μM bovine serum albumin (Sigma, St. Louis, Mo.) in 96-well Costar black-well plate. FS-3 fluorescence at excitation and emission wavelengths of 485 and 538 nm, respectively, were monitored using a FLEXstation II (Molecular Devices, Sunnyvale, Calif.) for 2 h of incubation at 37° C. The differences between time 0 and 120 min were calculated individually and normalized to the vehicle control. The mean±SD of triplicate samples was expressed as percentage of ATX activity. The ATX activity in the presence of the test compounds was compared to vehicle using the […] p<0.05 was considered significant.
The first level of testing was done using 10 μM concentrations of the compounds shown in Tables 1 and 2 added to 2 nM recombinant human ATX and the FRET substrate FS-3. After a 2 h incubation the amount of FS3 hydrolyzed was measured and the residual ATX activity was expressed as a percent of the vehicle-treated sample less the autolysis of FS3 in the absence of ATX.

NPP7 = target: T1, NPP7 (Homo sapiens, UniProt Q6UWV6); assay: NPP-7 inhibition assay (pNPPC substrate); format: biochemical; settings: 10 μM compound; 8.3 nM enzyme; 10 μM pNPPC; read-out: NPP7 Activity, % control (10 μM)
T1 sequence (Q6UWV6 22-458): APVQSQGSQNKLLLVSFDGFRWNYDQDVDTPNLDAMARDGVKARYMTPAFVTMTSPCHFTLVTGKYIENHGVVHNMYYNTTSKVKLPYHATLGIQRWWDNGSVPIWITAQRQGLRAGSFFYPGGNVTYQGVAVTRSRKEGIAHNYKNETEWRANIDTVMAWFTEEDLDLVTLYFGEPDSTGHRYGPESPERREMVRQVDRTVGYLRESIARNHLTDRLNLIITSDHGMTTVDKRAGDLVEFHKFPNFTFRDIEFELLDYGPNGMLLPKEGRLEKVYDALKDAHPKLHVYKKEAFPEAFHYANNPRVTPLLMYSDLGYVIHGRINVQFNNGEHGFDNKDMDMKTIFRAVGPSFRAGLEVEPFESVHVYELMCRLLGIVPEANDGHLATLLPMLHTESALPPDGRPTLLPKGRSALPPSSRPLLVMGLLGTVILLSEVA
Description: NPP6 and NPP7 are the only NPP isoforms other than ATX that are known to utilize lysophospholipid phosphodiesters as substrates. Therefore, the specificity of the chemical compounds of the invention regarding ATX was addressed by determining the activity of NPP6 and NPP7 in the presence and absence of these analogs.
Inhibition of NPP6 and NPP7 was evaluated using recombinant, purified proteins, the synthetic substrate para-nitrophenylphosphocholine (pNPPC) and a Synergy II plate reader (BioTek, Winooski, Vt.). The final concentration of each enzyme was 8.3 nM and pNPPC was 10 μM. All analogs were tested at single 10 μM concentrations. Absorbance of liberated para-nitrophenol at 405 nm was determined up to 1 hour (where responses were linear) and was normalized to vehicle control.

[1] = 10 μM compound, 2 nM recombinant human ATX, 2 h

inhibition at 10 µM (recombinant human ATX; [1]) [%]	Compound	remaining activity at 10 µM (recombinant human ATX; [1]) [%]	inhibition at 10 µM (recombinant human ATX) [%]	remaining activity at 10 µM (NPP7) [%]
–	CCCCCCCCCCCCCCCc1ccc(CP(=O)(O)O)cc1 [Compound 22, 4-Pentadecylbenzylphosphonic acid]	5.2	95	96.7
83	CCCCCCCCCCC/C=C/c1ccc2cc(CP(=O)(O)O)ccc2c1 [Compound 30b, (E)-6-Tridec-1-enyl-naphthalen-2-yl-methylphosphonic acid]	17.3	–	96.5
